Where two headings read alike, the source gives them in different places.
Assays:
[1] = system: Lipopolysaccharide (LPS)-induced pneumonia model in mice; assay: LPS-induced pneumonia model in mice, intravenous injection: lung index; type: in vivo, ICR mice; conditions: 50 mg/kg i.v. once daily 2 days
Experimental: (§1) Sixty healthy mice, weighing 18˜20 g, half male and half female, were selected and randomly grouped after stratification by weight; they were divided into a normal control group, a model control group, three Genipin-1-β-D-gentiobioside dose groups (150 mg/kg/d, 75 mg/kg/d, 37.5 mg/kg/d), and a positive control drug Sivelestat Sodium 50 mg/kg/d group, with 10 mice in each group, half male and half female. After grouping, each treatment group was administered intravenously at 20 ml/kg once daily for 2 consecutive days, while the normal control group and model control group were injected with physiological saline. One hour after the second dose, except for the normal control group, the other groups were lightly anesthetized with isoflurane, and a 20 mg/ml LPS physiological saline solution was administered intranasally to the mice at 0.05 ml/mouse to induce the pneumonia model. Six hours after infection, the animals were sacrificed, dissected, and their lungs were removed and weighed to calculate the lung index (lung index=lung weight/body weight×100%).

[2] = system: Lipopolysaccharide (LPS)-induced pneumonia model in mice; assay: Inflammatory factors in lung tissue of LPS-induced pneumonia mice (ELISA); type: in vivo, ICR mice; conditions: dosage 50 (mg/ml), i.v.
Experimental: as §1
(1) Sample Collection and Storage: Tissue homogenate samples: The lung tissues of mice were collected and weighed, including those from mice numbered 1, 2, 3, 6, 7, and 8 in each group. The tissues were stored at […] An ultrasonic cell disruptor was used to homogenize the tissues, followed by centrifugation at […] and 1000 r/min for 10 minutes using a low-temperature high-speed centrifuge. The supernatant was then collected, aliquoted, and stored at −80° C. for future use, avoiding repeated freeze-thaw cycles.
(2) The microwell plate, which had been equilibrated to room temperature, was removed from the sealed bag. Different concentrations of standards, experimental samples, or quality control samples were added to the corresponding wells, with 100 μL per well. The reaction wells were sealed with sealing tape and incubated at room temperature for 2 hours. The plate was then washed with wash buffer, repeating the operation four times. After the final wash, the plate was inverted and all residual liquid was patted dry on absorbent paper. Next, 100 μL of enzyme-labeled detection antibody was added to each microwell. The reaction wells were sealed again with sealing tape and incubated at room temperature for another 2 hours. The washing step was repeated as described above. Then, 100 μL of substrate solution was added to each microwell and incubated at room temperature for 30 minutes, protected from light. Within 30 minutes after adding 100 μL of stop solution to each microwell, the absorbance at 450 nm was measured using a microplate reader. The results were then calculated.

[3] = system: Human Respiratory Syncytial Virus (RSV); assay: RSV viral load in mouse lung tissue (RT-PCR), nebulization; type: in vivo; conditions: dosage 82.5 (mg/ml), nebulization time 25 min
Experimental: […] Each group consisted of 10 mice, with an equal number of males and females. Except for the normal control group, all mice were lightly anesthetized with isoflurane and infected with respiratory syncytial virus (RSV) via intranasal administration, with each mouse receiving 35 μl of the virus. On the day of infection, the treatment groups began inhalation administration. Each group received nebulization for 25 minutes once daily for four consecutive days. The normal control group and the model control group received nebulized saline under the same conditions. On the fifth day, after weighing, the mice were sacrificed by cervical dislocation, and their lung tissues were dissected, weighed, and used to calculate the lung index and lung index inhibition rate. The lung tissues were also retained for virus load, pathological examination, and inflammatory factor detection. The results were statistically analyzed using the t-test for intergroup comparisons.
After dissecting the mice, the lung tissues were collected and stored in separate containers at −80° C. in a low-temperature freezer. The lung tissues were then removed from the −80° C. freezer and placed in a clean mortar. A small amount of liquid nitrogen was poured into the mortar, and the tissues were ground into powder using a pestle. The powder was collected in a 1.5 ml centrifuge tube, and 1 ml of TRIzol Reagent was immediately added. The tube was gently tapped at the bottom to mix the sample and ensure it was resuspended as soon as possible. The centrifuge tube was then placed horizontally at room temperature and incubated for 20 minutes. Next, it was centrifuged at 4° C. and 12,000 rpm for 10 minutes. The clear supernatant was transferred to a new 1.5 ml centrifuge tube, and 0.2 ml of chloroform was added. The tube was tightly capped, vigorously shaken for 15 seconds, and then incubated at room temperature for 2-3 minutes until the liquid separated into layers. After centrifuging at 4° C. and 12,000 rpm for 15 minutes, the transparent supernatant was carefully transferred to a new 1.5 ml centrifuge tube. Then, 0.5 ml of isopropanol was added, mixed well, and incubated at room temperature for 30 minutes. Following centrifugation at 4° C. and 12,000 rpm for 10 minutes, the supernatant was discarded. The precipitate was gently washed with 1 ml of 75% ethanol (to allow the white precipitate to float slightly), and then centrifuged at 4° C. and 7,500 rpm for 5 minutes. The supernatant was completely aspirated, and the RNA precipitate was briefly dried for 5-10 minutes. The precipitate was then dissolved in 20 μl of DEPC (Diethylpyrocarbonate)-treated water and stored in a −80° C. low-temperature freezer.
Treatment of Control Nucleic Acid: DEPC-H2O was used as a negative control. For the positive control, a series of four concentrations were prepared by gradient dilution at 10^7, 10^6, 10^5, and 10^4 copies/ml.
Reagent Preparation: Mix n×18 μl of RSV nucleic acid fluorescent PCR detection mixture, n×1 μl of internal control, and n×1 μl of RT-PCR enzyme (where n is the number of reaction tubes). Shake vigorously for a few seconds and centrifuge at 3000 rpm for a few seconds.
Sample Addition: Dispense 20 μl of the above mixture into each PCR tube. Then, add 5 μl of sample nucleic acid extract, DEPC-H2O, and positive control to the respective PCR tubes. Tightly close the tube caps, centrifuge for a few seconds to ensure all liquids are at the bottom, and immediately proceed with PCR amplification.
PCR Amplification: Place the reaction tubes in a quantitative fluorescent PCR instrument. Set the cycling parameters as follows: 45° C. for 10 minutes; 95° C. for 15 minutes; then 40 cycles of 95° C. for 15 seconds→60° C. for 60 seconds. Single-point fluorescent detection is performed at 60° C., with a reaction volume of 25 μl.
Fluorescent Channel Selection: Select the FAM and HEX/VIC/JOE channels for detection. […]

[4] = system: Mycoplasma Pneumoniae (MP); assay: Mycoplasma pneumoniae-infected mouse pneumonia model: lung index; type: in vivo, BALB/C mice; set-up: First Batch Inhibition Rate: unit not given here
[5] = system: Mycoplasma Pneumoniae (MP); assay: Inflammatory factors in lung tissue of MP-infected mice (ELISA); type: in vivo, BALB/C mice; conditions: 42 mg/kg
Experimental: […] Each group consisted of 10 mice, with an equal number of males and females. Except for the normal control group, all mice were lightly anesthetized with isoflurane and infected intranasally with Mycoplasma Pneumoniae (50 μl per mouse) for three consecutive days. On the day of infection, each treatment group received nebulized medication once daily for four consecutive days, while the normal control group and model control group received nebulized saline under the same conditions. On the fifth day, the mice were weighed, sacrificed by cervical dislocation, and their lung tissues were dissected, weighed, and used to calculate the lung index and lung index inhibition rate; measure the levels of inflammatory factors in the lung tissue; measure the serum CRP levels; and conduct pathological examinations of the lung tissue. The results were statistically analyzed using the t-test for intergroup comparisons.
(1) Sample Collection and Storage: Tissue Homogenate Samples: After weighing, lung tissues were collected from 8 mice in each group and stored at −80° C. The MP Fastprep-24 5G Rapid Sample Preparation System was used to homogenize the tissues, followed by centrifugation at […] and 3000 r/min for 10 minutes using a low-temperature high-speed centrifuge. The supernatant was then aspirated, aliquoted, and stored at −80° C. for future use, avoiding repeated freeze-thaw cycles.
(2) The microplate, which had been equilibrated to room temperature, was removed from the sealed bag. Different concentrations of standards were added to the corresponding wells, with 50 μL per well. For experimental samples, 10 μL of sample was added to each well, followed by 40 μL of diluent. Except for the blank wells, 100 μL of HRP (Horseradish Peroxidase) was added to each well. The reaction wells were sealed with sealing tape and incubated at 37° C. for 1 hour. The plate was then washed with wash buffer four times. After the final wash, the plate was inverted and all residual liquid was patted dry on absorbent paper. 50 μL of both Substrate A and Substrate B were added to each well. The reaction wells were then sealed with sealing tape and incubated at 37° C. for 15 minutes. After that, 50 μL of stop solution was added to each well, and the absorbance at 450 nm was measured using a microplate reader within 15 minutes. The results were then calculated.

[6] = system: Mycoplasma Pneumoniae (MP); assay: Pathological changes in lung tissue of MP-infected mice (HE staining); type: in vivo, BALB/C mice; set-up: Alveolitis Lesion Degree / Bronchial Damage / Histological Damage Degree: scale not given here; conditions: Azithromycin Group
Experimental: Fifty BALB/C mice, weighing 14±1 g, were randomly divided into five groups: a normal control group, a model control group, an azithromycin control group, a high-dose Genipin-1-β-D-gentiobioside group (75 mg/ml) with 15-minute nebulization, and a low-dose Genipin-1-β-D-gentiobioside group (37.5 mg/ml) with 15-minute nebulization. Each group consisted of 10 mice, with an equal number of males and females. Except for the normal control group, all mice were lightly anesthetized with isoflurane and infected intranasally with Mycoplasma Pneumoniae (50 μl per mouse) for three consecutive days. On the day of infection, each treatment group received nebulized medication once daily for four consecutive days, while the normal control group and model control group received nebulized saline under the same conditions. On the fifth day, the mice were weighed, sacrificed by cervical dislocation, and their lung tissues were dissected, weighed, and used to calculate the lung index and lung index inhibition rate; measure the levels of inflammatory factors in the lung tissue; measure the serum CRP levels; and conduct pathological examinations of the lung tissue. The results were statistically analyzed using the t-test for intergroup comparisons.
2.4 Pathological Changes in Mouse Lung Tissue (HE Staining Method)

[7] = system: Human Coronavirus OC43 (HCoV-OC43); type: in vivo; conditions: mouse, in vivo
[8] = system: Human Coronavirus OC43 (HCoV-OC43); type: in vivo; conditions: 90 mg/kg administration by gavage
[9] = 42 mg/kg administration by gavage, first batch
[10] = 42 mg/kg administration by gavage

## CC(C)(C)C(=O)Oc1ccc(S(=O)(=O)Nc2ccccc2C(=O)NCC(=O)O)cc1 [Sivelestat Sodium, reference compound]
[1]
  Inhibition Rate (lung index): 85.50
[1]; 6 h after LPS
  Lung Index: 0.86 ± 0.07 g/100 g body weight
[2]
  Inflammatory Factor Levels in Lung Tissue IL-6: 15.79 ± 2.08 pg/mL
  Inflammatory Factor Levels in Lung Tissue IL-10: 36.11 ± 4.87 pg/mL
  Inflammatory Factor Levels in Lung Tissue TNF-α: 98.88 ± 11.21 pg/mL

## NC(=O)c1ncn([C@@H]2O[C@H](CO)[C@@H](O)[C@H]2O)n1 [Ribavirin, reference compound]
[3]
  Inhibition Rate (viral load): 69.54%
  Viral Load in lung tissue: 17063.48 ± 16203.78 copies/ng

## CC[C@H]1OC(=O)[C@H](C)[C@@H](O[C@H]2C[C@@](C)(OC)[C@@H](O)[C@H](C)O2)[C@H](C)[C@@H](O[C@@H]2O[C@H](C)C[C@H](N(C)C)[C@H]2O)[C@](C)(O)C[C@@H](C)CN(C)[C@H](C)[C@@H](O)[C@]1(C)O [Azithromycin, azithromycin, reference compound]
[4]; [9]
  First Batch Inhibition Rate: 65.93
  First Batch Lung Index: 0.77 ± 0.05
[4]; [10]
  Second Batch Inhibition Rate: 98.72
  Second Batch Lung Index: 0.62 ± 0.09
[4]; injection administration
  Second Batch Inhibition Rate: 98.26
  Second Batch Lung Index: 0.62 ± 0.06
[5]
  Inflammatory Factor Levels in Lung Tissue IL-1β: 144.98 ± 15.93 pg/mL
  Inflammatory Factor Levels in Lung Tissue IL-6: 85.26 ± 25.59 pg/mL
  Inflammatory Factor Levels in Lung Tissue TNF-α: 345.86 ± 53.85 pg/mL
[6]
  Alveolitis Lesion Degree: 59.70
  Bronchial Damage: 54.80
  Histological Damage Degree: 2.43 ± 0.32
  Interstitial Inflammatory Cell Infiltration: 58.80

## CCN(CC)CCCC(C)Nc1ccnc2cc(Cl)ccc12 (stereo not drawn) [Chloroquine, Chloroquine Phosphate, reference compound]
[7]
  Inhibition Rate (lung index): 42.72%
  Lung Index: 0.80 ± 0.05 g lung weight × 100 g/body weight
[8]
  Inhibition Rate (lung index): 96.56%
  Lung Index: 0.73 ± 0.11 g lung weight × 100 g/body weight

Source: patent US20250195553A1, “Use of Genipin-1-B-D-Gentiobioside in Preparation of Drug” (Guizhou Bailing Group Pharmaceutical Co., Ltd., priority 2023, published 2025)
